# Laboratory results published in patent publication US11464770B2, “Anticancer pharmaceutical composition” (NATIONAL CANCER CENTER, priority 2016, dated 2022).
# Like-named read-outs stand apart in the source and are kept apart here.
# Assays:
# [1] = test system: bladder cancer cell lines; experiment: Cell based assay, cell viability (CellTiter-Glo), bladder cancer cell lines; conditions: 72 hours treatment, 0 to 2 μM, CellTiter-Glo
# Method: (§1) Commercially available bladder cancer, prostate cancer, lung cancer, breast cancer, blood cancer, pancreatic cancer, colorectal cancer, brain cancer, neuroblastoma, melanoma, liver cancer, cervical carcinoma, ovarian cancer, renal cancer, and papilloma cell lines were each treated with trypsin-EDTA and cultured, followed by being seeded in each well of a 96 well plate. After 24 hours of treatment at constant temperature, the respective cells were treated with the candidate compound so that a final concentration became 0 to 2 μM. The treated cells were additionally cultured for 72 hours, and cell viability was measured by using an ATP detection method (CellTiter-Glo® Luminescent Cell Viability Assay, Promega).
# [2] = test system: blood cancer cell lines (e.g. HL-60, Jurkat, Raji, Ramos, Daudi, MOLT-4); experiment: Cell based assay, cell viability (CellTiter-Glo), blood cancer cell lines; conditions: Homo sapiens
# Method: as §1
# [3] = 253J cells, read-out: IC50, bladder cancer cell line 253J
# [4] = 5637 cells, read-out: IC50, bladder cancer cell line 5637
# [5] = Homo sapiens, T-24, T24 cells, read-out: IC50, bladder cancer cell line T24
# [6] = Homo sapiens, UMUC3, UM-UC-3 cells, read-out: IC50, bladder cancer cell line UM-UC-3
# [7] = Homo sapiens, J82 cells, read-out: IC50, bladder cancer cell line J82
# [8] = Homo sapiens, KU-19-19 cells, read-out: IC50, bladder cancer cell line KU-19-19
# [9] = MBT-2 cells, read-out: IC50, bladder cancer cell line MBT-2
# [10] = MV4-11, blood cancer cell line MV-4-11, 72 hours, read-out: IC50, MV-4-11
# [11] = blood cancer cell line Daudi, 72 hours, read-out: IC50, Daudi
# [12] = blood cancer cell line HL-60, 72 hours, read-out: IC50, HL-60
# [13] = blood cancer cell line Jurkat, 72 hours, read-out: IC50, Jurkat
# [14] = blood cancer cell line MOLT-4, 72 hours, read-out: IC50, MOLT-4
# [15] = blood cancer cell line Raji, 72 hours, read-out: IC50, Raji
# [16] = blood cancer cell line Ramos (RA 1), 72 hours, read-out: IC50, Ramos (RA 1)
# [17] = blood cancer cell line U-937, 72 hours, read-out: IC50, U-937
Compound,"IC50 [1, 3] [nM]","IC50 [1, 4] [nM]","IC50 [1, 5] [nM]","IC50 [1, 6] [nM]","IC50 [1, 7] [nM]","IC50 [1, 8] [nM]","IC50 [1, 9] [nM]","IC50 [2, 10] [nM]","IC50 [2, 11] [nM]","IC50 [2, 12] [nM]","IC50 [2, 13] [nM]","IC50 [2, 14] [nM]","IC50 [2, 15] [nM]","IC50 [2, 16] [nM]","IC50 [2, 17] [nM]"
CC(=O)c1c([S+]([O-])Cc2ccccc2)nc2c(Br)ccc(Cl)c2c1O (centres unmarked) [Compound 4],1000,1910,1310,–,> 2000,–,–,1610,> 2000,1980,1070,1370,1150,1760,1240
"CSc1[nH]c2ccc(F)cc2c(=O)c1C(C)=O [Compound 8, 1-(6-fluoro-4-hydroxy-2-(methylthio)quinolin-3-yl)ethan-1-one]",> 2000,> 2000,> 2000,> 2000,> 2000,> 2000,> 2000,> 2000,> 2000,> 2000,> 2000,> 2000,> 2000,> 2000,> 2000
"CC(=O)c1c([S+](C)[O-])n(C(=O)c2ccc(Br)cc2)c2c(Br)ccc(Cl)c2c1=O (centres unmarked) [Compound 9, 3-acetyl-8-bromo-1-(4-bromobenzoyl)-5-chloro-2-(methylsulfinyl)quinolin-4(1H)-one]",1100,1630,1160,1180,> 2000,1970,1200,1090,1990,1200,1050,1250,1140,1550,1060
"CC(=O)c1c(SCc2ccc(Cl)cc2)[nH]c2c(Br)ccc(Cl)c2c1=O [Compound 10, 3-acetyl-8-bromo-5-chloro-2-((4-chlorobenzyl)thio)quinolin-4(1H)-one]",> 2000,> 2000,> 2000,> 2000,> 2000,> 2000,> 2000,> 2000,> 2000,> 2000,> 2000,> 2000,> 2000,> 2000,> 2000
"CC(=O)c1c([S+]([O-])Cc2ccc(Cl)cc2)[nH]c2c(Br)ccc(Cl)c2c1=O (centres unmarked) [Compound 11, 3-acetyl-8-bromo-5-chloro-2-((4-chlorobenzyl)sulfinyl)quinolin-4(1H)-one]",–,> 2000,1830,–,> 2000,–,–,> 2000,> 2000,> 2000,> 2000,> 2000,> 2000,> 2000,> 2000
"COc1ccccc1Sc1[nH]c2c(Br)ccc(Cl)c2c(=O)c1C(C)=O [Compound 14, 3-acetyl-8-bromo-5-chloro-2-((2-methoxyphenyl)thio)quinolin-4(1H)-one]",> 2000,> 2000,> 2000,> 2000,> 2000,> 2000,> 2000,> 2000,> 2000,> 2000,> 2000,> 2000,> 2000,> 2000,> 2000
"COc1ccccc1[S+]([O-])c1[nH]c2c(Br)ccc(Cl)c2c(=O)c1C(C)=O (centres unmarked) [Compound 15, 3-acetyl-8-bromo-5-chloro-2-((2-methoxyphenyl)sulfinyl)quinolin-4(1H)-one]",> 2000,> 2000,> 2000,–,> 2000,–,–,> 2000,> 2000,> 2000,> 2000,> 2000,> 2000,> 2000,> 2000
"CC(=O)c1c(Sc2ccc(Br)cc2)[nH]c2c(Br)ccc(Cl)c2c1=O [Compound 16, 3-acetyl-8-bromo-2-((4-bromophenyl)thio)-5-chloroquinolin-4(1H)-one]",> 2000,> 2000,> 2000,> 2000,> 2000,> 2000,> 2000,> 2000,> 2000,> 2000,> 2000,> 2000,> 2000,> 2000,> 2000
"CC(=O)c1c([S+](C)[O-])n(C(C)=O)c2c(Br)ccc(Cl)c2c1=O (centres unmarked) [Compound 19, 1,1′-(8-bromo-5-chloro-2-(methylsulfinyl)-4-oxoquinoline-1,3(4H)-diyl)bis(ethan-1-one)]",> 2000,> 2000,> 2000,> 2000,> 2000,> 2000,> 2000,> 2000,> 2000,> 2000,> 2000,> 2000,> 2000,> 2000,> 2000
"CC(=O)c1c([S+]([O-])Cc2ccccc2)n(C(=O)c2ccc(Br)cc2)c2c(Br)ccc(Cl)c2c1=O (centres unmarked) [Compound 20, 3-acetyl-2-(benzylsulfinyl)-8-bromo-1-(4-bromobenzoyl)-5-chloroquinolin-4(1H)-one]",> 2000,> 2000,> 2000,> 2000,> 2000,> 2000,> 2000,> 2000,> 2000,> 2000,> 2000,> 2000,1180,1510,> 2000

# More lines, now with the values ahead:
"IC50 [1, 3] [nM]","IC50 [1, 4] [nM]","IC50 [1, 5] [nM]","IC50 [1, 6] [nM]","IC50 [1, 7] [nM]","IC50 [1, 8] [nM]","IC50 [1, 9] [nM]","IC50 [2, 10] [nM]","IC50 [2, 11] [nM]","IC50 [2, 12] [nM]","IC50 [2, 13] [nM]","IC50 [2, 14] [nM]","IC50 [2, 15] [nM]","IC50 [2, 16] [nM]","IC50 [2, 17] [nM]",Compound
1350,1670,1340,1510,> 2000,1940,1190,1390,> 2000,1720,> 2000,1850,> 2000,> 2000,> 2000,"CC(=O)c1c([S+](C)[O-])[nH]c2c(Br)ccc(Cl)c2c1=O (centres unmarked) [Compound 1, 3-acetyl-8-bromo-5-chloro-2-(methylsulfinyl)quinolin-4(1H)-one]"
> 2000,> 2000,> 2000,> 2000,> 2000,> 2000,> 2000,> 2000,> 2000,> 2000,> 2000,> 2000,> 2000,> 2000,> 2000,"CSc1[nH]c2c(Br)ccc(Cl)c2c(=O)c1C(C)=O [Compound 2, 3-acetyl-8-bromo-5-chloro-2-(methylthio)quinolin-4(1H)-one]"
> 2000,> 2000,> 2000,> 2000,> 2000,> 2000,> 2000,> 2000,> 2000,> 2000,> 2000,> 2000,> 2000,> 2000,> 2000,"CC(=O)c1c(SCc2ccccc2)[nH]c2c(Br)ccc(Cl)c2c1=O [Compound 3, 3-acetyl-2-(benzylthio)-8-bromo-5-chloroquinolin-4(1H)-one]"
> 2000,> 2000,> 2000,> 2000,> 2000,> 2000,> 2000,> 2000,> 2000,> 2000,> 2000,> 2000,> 2000,> 2000,> 2000,"CSc1c(C(C)=O)c(=O)c2c(Cl)ccc(Br)c2n1C [Compound 5, 3-acetyl-8-bromo-5-chloro-1-methyl-2-(methylthio)quinolin-4(1H)-one]"
1220,1690,1420,1460,> 2000,> 2000,1440,1260,> 2000,1650,> 2000,1690,> 2000,> 2000,> 2000,"CC(=O)c1c([S+](C)[O-])[nH]c2c(Cl)ccc(Cl)c2c1=O (centres unmarked) [Compound 6, 3-acetyl-5,8-dichloro-2-(methylsulfinyl)quinolin-4(1H)-one]"
> 2000,> 2000,> 2000,> 2000,> 2000,> 2000,> 2000,> 2000,> 2000,> 2000,> 2000,> 2000,> 2000,> 2000,> 2000,"CSc1c(C(C)=O)c(=O)c2cc(F)ccc2n1C [Compound 7, 3-acetyl-6-fluoro-1-methyl-2-(methylthio)quinolin-4(1H)-one]"
> 2000,> 2000,> 2000,> 2000,> 2000,> 2000,> 2000,> 2000,> 2000,> 2000,> 2000,> 2000,> 2000,> 2000,> 2000,"CC(=O)c1c(Sc2ccccc2)[nH]c2c(Br)ccc(Cl)c2c1=O [Compound 12, 3-acetyl-8-bromo-5-chloro-2-(phenylthio)quinolin-4(1H)-one]"
> 2000,> 2000,> 2000,–,> 2000,–,–,> 2000,> 2000,> 2000,> 2000,> 2000,> 2000,> 2000,> 2000,"CC(=O)c1c([S+]([O-])c2ccccc2)[nH]c2c(Br)ccc(Cl)c2c1=O (centres unmarked) [Compound 13, 3-acetyl-8-bromo-5-chloro-2-(phenylsulfinyl)quinolin-4(1H)-one]"
> 2000,> 2000,> 2000,–,> 2000,–,–,> 2000,> 2000,> 2000,> 2000,> 2000,> 2000,> 2000,> 2000,"CC(=O)c1c([S+]([O-])c2ccc(Br)cc2)[nH]c2c(Br)ccc(Cl)c2c1=O (centres unmarked) [Compound 17, 3-acetyl-8-bromo-2-((4-bromophenyl)sulfinyl)-5-chloroquinolin-4(1H)-one]"
> 2000,> 2000,> 2000,> 2000,> 2000,> 2000,> 2000,> 2000,> 2000,> 2000,> 2000,> 2000,> 2000,> 2000,> 2000,"CSc1c(C(C)=O)c(=O)c2c(Cl)ccc(Br)c2n1C(C)=O [Compound 18, 1,1′-(8-bromo-5-chloro-2-(methylthio)-4-oxoquinoline-1,3(4H)-diyl)bis(ethan-1-one)]"
